From patent US20220235064A1 (WELLMARKER BIO CO., LTD., priority 2019, published 2022)
Structures can show the parent of a compound that is named as a salt.

Tests used:
RON tyrosine kinase = molecular target: T1, RON tyrosine kinase (Homo sapiens, UniProt Q04912); assay: Enzyme inhibitory activity against RON tyrosine kinase (TR-FRET); assay type: biochemical; details: RON (Carna Bioscience)
T1 construct: purchased Carna Bioscience
How it was run: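 Recombinant RON was preincubated with compound for 15 min at RT in 50 mM HEPES pH 7.5, 10 mM MgCl2, 1 mM EGTA, 2 mM DTT, 0.01% Tween-20. Enzyme (0.4 nM), ATP (60 μM) and tyrosine peptide (400 nM) were prepared at 2×, 4× and 4× final. After 60 min at RT, EDTA/Eu-anti-phosphotyrosine stop; IC50 from 665 nm TR-FRET emission.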

[1] = system: cancer cell line KM12C, in which RON is activated; assay: Cell growth inhibitory ability in RON-activated cancer cell line (MTS); assay type: cell-based; details: Homo sapiens, 48 hours, absorbance 490 nm
How it was run: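 KM12C cells (RON-activated, MEM with FBS) exposed to compound […] for 48 h. MTS added 24 h after treatment ended, incubated 4 h at 37° C, absorbance read at 490 nm. IC50 derived from absorbance.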

[2] = system: cancer cell line KM12C, in which RON is activated; assay: Cell-killing efficacy in RON-activated cancer cell line (trypan blue); assay type: cell-based; details: Homo sapiens, 48 hours, trypan blue, n=2, read-out: Cell death (%) Cancer cell line KM12C
How it was run: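 KM12C cells seeded 1×10^5 per 60 mm^2 dish in MEM + 10% FBS, then exposed 24 h later to compound at 1 μM or 5 μM for 48 h.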

[3] = system: cancer cell line HT29, in which mutated RON (Δ160) is expressed; assay: Cell-killing efficacy in RON-mutated cancer cell line HT29 (trypan blue); assay type: cell-based; details: Homo sapiens, HT-29, 48 hours, trypan blue, n=2, read-out: Cell death (%) Cancer cell line HT29
Experimental: (§1) Experimental Example 4: Measurement of Cell-Killing Efficacy of Example Compounds in RON-Mutated Cancer Cell Lines
(§2) Each of two colorectal cancer cell lines, that is, the cancer cell line HT29 (30038, KCLB, RPMI+10% FBS), in which mutated RON (Δ160) is expressed, and the cancer cell line SW620 (CCL-227, ATCC, RPMI+10% FBS), in which mutated RON (Δ155) is expressed, was dispensed into each 60 mm^2 dish at 1×10^5 cells. After 24 hours, the dish was treated with each of the example compounds at a concentration of 1 μM or 5 μM while performing medium exchange, and then reaction was allowed to proceed for 48 hours. After 48 hours, centrifugation was performed for 4 minutes at 1,500 rpm to collect cells and cell fluid. Thereafter, living cells and dead cells were quantified (n=2) using a trypan blue solution (15250-061, Gibco), and statistical analysis was performed using Excel-T-test. Here, as a negative control, only a solvent (0.10% DMSO) was used; and as a positive control, N-(4-(2-amino-3-chloropyridin-4-yloxy)-3-fluorophenyl)-4-ethoxy-1-(4-fluorophenyl)-2-oxo-1,2-dihydropyridine-3-carboxamide, which is the compound of Example 1 in WO 2008/058229 A1, was used.

[4] = system: cancer cell line SW620, in which mutated RON (Δ155) is expressed; assay: Cell-killing efficacy in RON-mutated cancer cell line SW620 (trypan blue); assay type: cell-based; details: Homo sapiens, SW-620, 48 hours, trypan blue, n=2, read-out: Cell death (%) Cancer cell line SW620
Experimental: as §1, §2

T1 sequence (Q04912 25-1400): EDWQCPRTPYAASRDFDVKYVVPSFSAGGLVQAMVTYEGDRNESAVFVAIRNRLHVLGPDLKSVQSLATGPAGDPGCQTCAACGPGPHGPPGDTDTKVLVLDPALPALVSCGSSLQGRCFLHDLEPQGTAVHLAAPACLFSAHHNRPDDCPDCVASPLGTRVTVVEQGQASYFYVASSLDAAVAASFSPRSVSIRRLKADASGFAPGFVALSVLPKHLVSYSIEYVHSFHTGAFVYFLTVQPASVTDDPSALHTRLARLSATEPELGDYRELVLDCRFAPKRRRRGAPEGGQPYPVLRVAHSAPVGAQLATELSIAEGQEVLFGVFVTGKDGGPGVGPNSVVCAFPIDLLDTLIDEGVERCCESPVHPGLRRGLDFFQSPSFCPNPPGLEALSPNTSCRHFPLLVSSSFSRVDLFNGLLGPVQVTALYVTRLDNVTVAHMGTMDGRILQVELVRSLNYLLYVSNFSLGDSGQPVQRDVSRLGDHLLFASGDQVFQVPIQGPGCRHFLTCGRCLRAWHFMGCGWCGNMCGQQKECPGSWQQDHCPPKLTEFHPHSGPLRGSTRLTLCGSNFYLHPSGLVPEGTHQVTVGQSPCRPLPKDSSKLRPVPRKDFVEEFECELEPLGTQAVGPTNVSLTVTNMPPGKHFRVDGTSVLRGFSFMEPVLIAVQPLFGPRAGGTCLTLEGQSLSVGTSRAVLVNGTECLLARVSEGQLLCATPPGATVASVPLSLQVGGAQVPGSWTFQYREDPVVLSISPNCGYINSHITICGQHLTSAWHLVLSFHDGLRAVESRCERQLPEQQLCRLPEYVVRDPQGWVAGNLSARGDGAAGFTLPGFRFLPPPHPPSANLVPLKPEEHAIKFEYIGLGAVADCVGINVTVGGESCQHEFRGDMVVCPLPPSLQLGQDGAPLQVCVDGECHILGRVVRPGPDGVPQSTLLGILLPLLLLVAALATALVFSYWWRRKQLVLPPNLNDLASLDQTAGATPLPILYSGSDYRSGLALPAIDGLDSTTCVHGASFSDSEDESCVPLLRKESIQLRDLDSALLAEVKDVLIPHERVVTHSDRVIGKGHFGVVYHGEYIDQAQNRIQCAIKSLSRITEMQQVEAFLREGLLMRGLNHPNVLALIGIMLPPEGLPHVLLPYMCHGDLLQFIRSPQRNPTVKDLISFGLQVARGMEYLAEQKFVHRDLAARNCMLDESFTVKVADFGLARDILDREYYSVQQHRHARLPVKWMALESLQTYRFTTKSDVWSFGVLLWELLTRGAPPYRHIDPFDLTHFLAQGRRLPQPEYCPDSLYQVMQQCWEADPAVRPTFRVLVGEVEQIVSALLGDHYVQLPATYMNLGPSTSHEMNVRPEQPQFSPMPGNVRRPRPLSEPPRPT

Structure (SMILES)	IC50 (RON tyrosine kinase) [nM]	IC50 [1] [nM]	cytotoxicity at 1 µM [2] [%]	cytotoxicity at 5 µM [2] [%]	cytotoxicity at 1 µM [3] [%]	cytotoxicity at 5 µM [3] [%]	cytotoxicity at 1 µM [4] [%]	cytotoxicity at 5 µM [4] [%]
COCCNCc1ccc(-c2cc3nccc(Oc4ccc(NC(=O)c5c6c(cn(-c7ccc(F)cc7)c5=O)CCO6)cc4F)c3s2)nc1 [Example 1, N-(3-Fluoro-4-((2-(5-(((2-methoxyethyl)amino)methyl)pyridin-2-yl)thieno[3,2-b]pyridin-7-yl)oxy)phenyl)-5-(4-fluorophenyl)-6-oxo-2,3,5,6-tetrahydrofuro[3,2-c]pyridine-7-carboxamide hydrochloride]	0.82	2	10.3	68.6	9.35	38.2		
COCCNCc1ccc(-c2cc3nccc(Oc4ccc(NC(=O)c5c6c(cn(-c7ccccc7)c5=O)CCO6)cc4F)c3s2)nc1 [Example 2, N-(3-Fluoro-4-((2-(5-(((2-methoxyethyl)amino)methyl)pyridin-2-yl)thieno[3,2-b]pyridin-7-yl)oxy)phenyl)-6-oxo-5-phenyl-2,3,5,6-tetrahydrofuro[3,2-c]pyridine-7-carboxamide hydrochloride]	1.25	67	38.4	93.4	15.4	80.5		
CN(C)C1CN(Cc2ccc(-c3cc4nccc(Oc5ccc(NC(=O)c6c7c(cn(-c8ccc(F)cc8)c6=O)CCO7)cc5F)c4s3)nc2)C1 [Example 20, N-(4-((2-(5-((3-(Dimethylamino)azetidin-1-yl)methyl)pyridin-2-yl)thieno[3,2-b]pyridine-7-yl)oxy)-3-fluorophenyl)-5-(4-fluorophenyl)-6-oxo-2,3,5,6-tetrahydrofuro[3,2-c]pyridine-7-carboxamide]		1	8.12	35.5			17.4	91.2
COC1CCN(Cc2ccc(-c3cc4nccc(Oc5ccc(NC(=O)c6c7c(cn(-c8ccc(F)cc8)c6=O)CCO7)cc5F)c4s3)nc2)CC1 [Example 31, N-(3-Fluoro-4-((2-(5-((4-methoxypiperidin-1-yl)methyl)pyridin-2-yl)thieno[3,2-b]pyridin-7-yl)oxy)phenyl)-5-(4-fluorophenyl)-6-oxo-2,3,5,6-tetrahydrofuro[3,2-c]pyridine-7-carboxamide]		2	40.9	52			15.4	47
Cn1ncc2cc(Oc3ccc(NC(=O)c4c5c(cn(-c6ccc(F)cc6)c4=O)CCO5)cc3F)c(-c3cn[nH]c3)cc21 [Example 64]	14.2		13.1	97.1	16	18.8		
COc1cc2nccc(Oc3ccc(NC(=O)c4c5c(cn(-c6ccc(F)cc6)c4=O)CCO5)cc3F)c2cc1NC(=O)CCN1CCOCC1 [Example 180, N-(3-Fluoro-4-((7-methoxy-6-(3-morpholinopropanamido)quinolin-4-yl)oxy)phenyl)-5-(4-fluorophenyl)-6-oxo-2,3,5,6-tetrahydrofuro[3,2-c]pyridine-7-carboxamide]	6.83	3	18.1	20.6				

More lines, main results first:

IC50 (RON tyrosine kinase) [nM]	IC50 [1] [nM]	Structure (SMILES)	cytotoxicity at 1 µM [2] [%]	cytotoxicity at 5 µM [2] [%]	cytotoxicity at 1 µM [3] [%]	cytotoxicity at 5 µM [3] [%]	cytotoxicity at 1 µM [4] [%]	cytotoxicity at 5 µM [4] [%]
3.21		COc1cc2nccc(Oc3ccc(NC(=O)c4c5c(cn(-c6ccc(F)cc6)c4=O)CCO5)cc3F)c2cc1OC [Example 40, N-(4-((6,7-Dimethoxyquinolin-4-yl)oxy)-3-fluorophenyl)-5-(4-fluorophenyl)-6-oxo-2,3,5,6-tetrahydrofuro[3,2-c]pyridine-7-carboxamide]	29.8	37.3	9.17	22.9	8.5	9.2
	3	COc1cc2c(Oc3ccc(NC(=O)c4c5c(cn(-c6ccc(F)cc6)c4=O)CCO5)cc3F)ccnc2cc1OCCCN1CC(F)(F)C1 [Example 87, N-(4-((7-(3-(3,3-Difluoroazetidin-1-yl)propoxy)-6-methoxyquinolin-4-yl)oxy)-3-fluorophenyl)-5-(4-fluorophenyl)-6-oxo-2,3,5,6-tetrahydrofuro[3,2-c]pyridine-7-carboxamide]	40.7	60.1			77.1	70.5
	4	COc1cc2c(Oc3ccc(NC(=O)c4c5c(cn(-c6ccc(F)cc6)c4=O)CCO5)cc3F)ccnc2cc1OCCCN1CCC(F)(F)CC1 [Example 105, N-(4-((7-(3-(4,4-Difluoropiperidin-1-yl)propoxy)-6-methoxyquinolin-4-yl)oxy)-3-fluorophenyl)-5-(4-fluorophenyl)-6-oxo-2,3,5,6-tetrahydrofuro[3,2-c]pyridine-7-carboxamide]	33.8	45.2			60.4	84.1
	5	COc1cc2c(Oc3ccc(NC(=O)c4c5c(cn(-c6ccc(F)cc6)c4=O)CCO5)cc3F)ccnc2cc1OCCN1CC(F)(F)C1 [Example 124, N-(4-((7-(2-(3,3-difluoroazetidin-1-yl)ethoxy)-6-methoxyquinolin-4-yl)oxy)-3-fluorophenyl)-5-(4-fluorophenyl)-6-oxo-2,3,5,6-tetrahydrofuro[3,2-c]pyridine-7-carboxamide]	16.3	57.3	15.7	62.1	6.2	98.7
	1	COc1cc2c(Oc3ccc(NC(=O)c4c5c(cn(-c6ccc(F)cc6)c4=O)CCO5)cc3F)ccnc2cc1OCCN1CCS(=O)(=O)CC1 [Example 142, N-(4-((7-(2-(1,1-Dioxidothiomorpholino)ethoxy)-6-methoxyquinolin-4-yl)oxy)-3-fluorophenyl)-5-(4-fluorophenyl)-6-oxo-2,3,5,6-tetrahydrofuro[3,2-c]pyridine-7-carboxamide]	34	40			74	67.6
0.1	2	COc1cc2nccc(Oc3ccc(NC(=O)c4c5c(cn(-c6ccc(F)cc6)c4=O)CCO5)cc3F)c2cc1OCCCN1CCOCC1 [Example 176, N-(3-Fluoro-4-((7-methoxy-6-(3-morpholinopropoxy)quinolin-4-yl)oxy)phenyl)-5-(4-fluorophenyl)-6-oxo-2,3,5,6-tetrahydrofuro[3,2-c]pyridine-7-carboxamide]	4.1	20.2				
3.35	8	COc1cc2c(Oc3ccc(NC(=O)c4c5c(cn(-c6ccc(F)cc6)c4=O)CCO5)cc3F)ccnc2cc1NC(=O)CN1CCOCC1 [Example 182, N-(3-Fluoro-4-((6-methoxy-7-(2-morpholinoacetamido)quinolin-4-yl)oxy)phenyl)-5-(4-fluorophenyl)-6-oxo-2,3,5,6-tetrahydrofuro[3,2-c]pyridine-7-carboxamide]	25.1	44.4	7.6	10.2		
2.5	3	COc1cc2c(Oc3ccc(NC(=O)c4c5c(cn(-c6ccc(F)cc6)c4=O)CCO5)cc3F)ccnc2cc1NC(=O)CCN1CCOCC1 [Example 183, N-(3-Fluoro-4-((6-methoxy-7-(3-morpholinopropanamido)quinolin-4-yl)oxy)phenyl)-5-(4-fluorophenyl)-6-oxo-2,3,5,6-tetrahydrofuro[3,2-c]pyridine-7-carboxamide]	27.3	40.3	7.8	87.5		
